Measurements as given in US12570684B2 (UNIVERSITY OF TENNESSEE RESEARCH FOUNDATION, priority 2020, dated 2026).
“And” between values parts separate entries of the source, which are not always exact repeats. Equal entries are not always repeated. Where two headings read alike, the source gives them in different places.

Assays:
[1] = target: T1, DPAGT1 (Human) (Homo sapiens, UniProt Q9H3H5); assay: DPAGT1 assay; type: biochemical
T1 construct: made in house; host or cells: Expi293 cells (suspension)
T1 sequence (Q9H3H5 1-408): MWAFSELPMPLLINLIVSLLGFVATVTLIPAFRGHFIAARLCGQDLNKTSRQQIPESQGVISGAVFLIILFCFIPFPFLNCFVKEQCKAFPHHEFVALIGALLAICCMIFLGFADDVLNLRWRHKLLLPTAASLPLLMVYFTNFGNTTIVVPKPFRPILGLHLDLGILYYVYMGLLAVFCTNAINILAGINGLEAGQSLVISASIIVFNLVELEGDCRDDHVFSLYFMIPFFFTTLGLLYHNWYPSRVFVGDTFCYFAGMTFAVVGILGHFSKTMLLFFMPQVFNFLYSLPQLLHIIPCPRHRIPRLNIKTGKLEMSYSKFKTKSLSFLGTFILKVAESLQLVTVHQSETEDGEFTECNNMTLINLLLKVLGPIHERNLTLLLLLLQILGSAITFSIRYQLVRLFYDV
Method: DPAGT1 expression and purification. DPAGT1 was expressed in suspended Expi293 cells for 36 h. The cells were lysed by drawing through a 26 g needle (10 times) and membrane protein was extracted using buffer containing 1% decyl f3-D-maltopyranoside detergent. DPAGT1 was purified using HA-agarose resin and a superdex 200 size exclusion column.

[2] = system: WecA; details: background; cited from earlier work
[3] = target: MraY (Hydrogenivirga sp.) (Hydrogenivirga sp. 128-5-R1-1, UniProt Z9Y2G8N0L0); assay: MraY assay; type: biochemical
Method: Expression and purification of HyMraY. The gene mraY of Hydrogenivirga spp. 128-5-R1-1 was cloned with a N-terminal His6 tag into a pET22b vector. […] The proteins were purified using a nickel, cation exchange, and size exclusion chromatography.
MraY assay. MraY assay substrates, Park's nucleotide-N^ε-C6-dansylthiourea, neryl phosphate, were chemically synthesized according to the reported procedures.^7 Park's nucleotide-N^ε-C6-dansylthiourea (2 mM stock solution, 1.88 jiL), MgCl2 (0.5 M, 5 jiL), KCl (2 M, 5 jiL), Triton X-100 (0.5%, 5.63 jiL), Tris buffer (pH 8.0, 50 mM), neryl phosphate (0.1 M, 2.25 jiL), and inhibitor molecule (0-50 .ig/mL in Tris buffer) were placed in a 1.5 mL Eppendorf tube. […] (26° C.) and quenched with CHCl3 (100 jiL). […] The aqueous phase was assayed via reverse-phase HPLC.

[4] = system: PANC-1; assay: MTT cytotoxicity assay; type: cell-based, human; details: 72 h
Method: (§1) Cell lines. The human primary PDAC cell lines PANC-1 (ATCC CRL 1469); Capan-2 (ATCC HTB-80) and metastatic PDAC cell lines Capan-1 (ATCC HTB-79), AsPC-1 (ATCC CRL-1682), L1210 (ATCC CCL-219), KB (ATCC CCL-17), HeLa, SiHa (ATCC HTB-35), HCT-116 (ATCC CCL-247), DLD-1 (ATCC CCL221), hTERT-HPNE (ATCC CRL-4023), Vero (ATCC CCL-81) were purchased from the ATCC. The cell lines were cultured and maintained in the media as recommended by the supplier. The cell lines were regularly tested for mycoplasma contamination and authenticated. In addition to ATCC cell lines, Dr. Glazer's lab generated patient-derived PDAC cell line, PD002. PD002 Cells were maintained and cultured in DMEM medium supplemented with 20% FBS and 100 IU/mL penicillin and incubated at 37° C. with 5% CO2.
(§2) MTT cytotoxicity assay. To study the effect of treatment with DPAGT1 inhibitors on the growth and proliferation of cells, a fixed number of cells (5×10^4 cells/well, 196 μL) were plated in a 96 well plate. Into each well 5 μL of drug concentration was added. After 72 h of incubation with drugs at 37° C., 5% CO2, 10 μL of MTT solution (5 mg/mL in PBS) was added and incubated another 3 h at 37° C., 5% CO2. The medium was removed, and DMSO (200 μL/well) was added. Viability was assessed on the basis of cellular conversion of MTT into a purple formazan product. The absorbance of the colored formazan product was measured at 570 nm by BioTek Synergy HT Spectrophotometer.

[5] = system: AsPC-1; assay: MTT cytotoxicity assay; type: cell-based, human; details: 72 h
Method: as §1, §2

[6] = system: Capan-2; assay: MTT cytotoxicity assay; type: cell-based, human; details: 72 h
Method: as §1, §2

[7] = target: MraY/MurX (Mycobacterium tuberculosis, UniProt P9WMW7); details: background; cited from earlier work
[8] = system: Vero; assay: MTT cytotoxicity assay; type: cell-based; details: MTT, 72 h
Method: as §1, §2

[9] = system: L1210; assay: MTT cytotoxicity assay; type: cell-based; details: MTT, 72 h
Method: as §1, §2

[10] = system: SiHa; assay: MTT cytotoxicity assay; type: cell-based; details: 72 h
Method: as §1, §2

[11] = system: DLD-1; assay: MTT cytotoxicity assay; type: cell-based; details: 72 h
Method: as §1, §2

[12] = system: PD002; assay: MTT cytotoxicity assay; type: cell-based; details: MTT, 72 h
Method: as §1, §2

[13] = system: KB; assay: MTT cytotoxicity assay; type: cell-based; details: 72 h
Method: as §1, §2

[14] = system: HPNE; assay: MTT cytotoxicity assay; type: cell-based; details: MTT, 72 h
Method: as §1, §2

[15] = system: HCT-116; assay: MTT cytotoxicity assay; type: cell-based; details: 72 h
Method: as §1, §2

[16] = target: WecA (E. coli) (Escherichia coli, UniProt P0AC78); assay: WecA assay; details: read-out: IC50 WecA (E. coli)
Method: Preparation of membrane fraction P-60 containing WecA. E. coli B21 wecA strain were harvested by centrifugation (4,700 rpm) at 4° C. followed by washing with 0.9% saline solution (thrice). The washed cell pellets were washed with homogenization buffer (containing 50 mM K2HPO4, 5 mM MgCl2, 5 mM 1,4-dithio-DL-threitol, and 10% glycerol, pH=7.2) (thrice), and approximately 5 g of pellet (wet weight) was collected. The washed cell pellets were suspended in homogenization buffer and disrupted by probe sonication on ice (5 s on and 2 s off for 1 min, then cool down for 1.5 min., 5 cycles, cool down for 15 min, and then, 5 s on and 2 s off for 1 min., cool down for 1.5 min, 5 cycles). The resulting suspension was centrifuged at 4,700×g for 15 min. at 4° C. to remove unbroken cells. The lysate was centrifuged at 25,000×g for 20 min. at 4° C. The supernatant was subjected to ultracentrifugation at 60,000×g for 1 h at 4° C. The supernatant was discarded, and the membrane fraction containing WecA enzyme (P-60) was suspended in the Tris-HCl buffer (pH=7.5). Total protein concentrations were approximately 8 to 10 mg/mL. Aliquots were stored in Eppendorf tubes at −80° C.

[17] = system: DPAGT1; assay: Immunofluorescent staining of DPAGT1 expression; type: cell-based
[18] = system: PD002; assay: Scratch (wound healing) assay; type: cell-based; details: 0.2 μM, 24 h; untreated PD002 63%
Method: Scratch Assay. A confluent monolayer was formed in 24-well plates. The monolayer was scratched by a sterile 200 μL pipette tip and washed with PBS to remove cell debris. Complete medium with CPPB (5) (0, 0.05, 0.1, 0.2 μM) were added and scratched areas were photographed with microscope. The scratched cells were incubated at 37° C., 5% CO2. After 24 h, medium was removed and cells were stained with a 1:1 mixture of crystal violet and PBS for 5 min., washed with PBS twice, and photographed with microscope. Wound areas were measured and recovered areas were calculated.

[19] = system: DPAGT1 gene; assay: RT-qPCR analyses of DPAGT1 expression level; type: cell-based; details: PD002
[20] = system: DPAGT1; details: background; cited from earlier work
[21] = system: mice; details: IP; cited from earlier work
[22] = system: cell lines in Table 2; assay: MTT assays, summary over the cell lines in Table 2; type: cell-based; details: all cell lines in Table 2; read-out: IC50 range, growth inhibition of all cell lines in Table 2
Method: as §1, §2

[23] = target: T2, AglH (M. jannaschii) (Methanocaldococcus jannaschii, UniProt Q58513); assay: AglH assay; details: read-out: IC50 AglH (M. jannaschii)
T2 sequence (Q58513 1-301): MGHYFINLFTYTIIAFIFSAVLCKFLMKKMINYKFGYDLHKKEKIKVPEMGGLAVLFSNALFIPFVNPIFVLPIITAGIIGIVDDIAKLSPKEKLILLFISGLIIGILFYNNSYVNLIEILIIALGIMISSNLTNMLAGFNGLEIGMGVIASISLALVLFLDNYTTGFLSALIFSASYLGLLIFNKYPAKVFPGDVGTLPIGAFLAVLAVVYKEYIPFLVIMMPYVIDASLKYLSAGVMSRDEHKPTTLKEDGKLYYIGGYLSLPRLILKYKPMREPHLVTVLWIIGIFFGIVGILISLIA

Sequence of WecA (E. coli) (P0AC78 whole entry): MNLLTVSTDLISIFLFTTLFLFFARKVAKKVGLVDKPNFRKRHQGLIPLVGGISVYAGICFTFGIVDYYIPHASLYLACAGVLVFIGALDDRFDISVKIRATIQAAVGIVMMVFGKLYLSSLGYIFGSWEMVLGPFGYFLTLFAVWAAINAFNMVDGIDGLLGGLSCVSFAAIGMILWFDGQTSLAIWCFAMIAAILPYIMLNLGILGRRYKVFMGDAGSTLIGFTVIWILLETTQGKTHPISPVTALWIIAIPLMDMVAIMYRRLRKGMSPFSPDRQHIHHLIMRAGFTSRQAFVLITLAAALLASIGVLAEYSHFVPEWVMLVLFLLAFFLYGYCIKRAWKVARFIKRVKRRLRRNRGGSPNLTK
Sequence of MraY/MurX (P9WMW7 whole entry): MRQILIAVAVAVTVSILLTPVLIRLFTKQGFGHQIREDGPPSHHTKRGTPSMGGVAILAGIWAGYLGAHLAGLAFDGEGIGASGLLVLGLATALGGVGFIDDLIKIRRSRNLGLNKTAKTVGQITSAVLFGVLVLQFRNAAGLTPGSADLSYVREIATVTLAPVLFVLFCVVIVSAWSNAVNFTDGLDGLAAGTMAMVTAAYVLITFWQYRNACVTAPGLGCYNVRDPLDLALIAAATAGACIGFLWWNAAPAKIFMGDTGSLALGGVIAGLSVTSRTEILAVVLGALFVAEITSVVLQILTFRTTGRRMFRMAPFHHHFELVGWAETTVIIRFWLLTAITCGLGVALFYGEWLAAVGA
Sequence of MraY (Hydrogenivirga sp.) (Z9Y2G8N0L0 7-365 limits assumed): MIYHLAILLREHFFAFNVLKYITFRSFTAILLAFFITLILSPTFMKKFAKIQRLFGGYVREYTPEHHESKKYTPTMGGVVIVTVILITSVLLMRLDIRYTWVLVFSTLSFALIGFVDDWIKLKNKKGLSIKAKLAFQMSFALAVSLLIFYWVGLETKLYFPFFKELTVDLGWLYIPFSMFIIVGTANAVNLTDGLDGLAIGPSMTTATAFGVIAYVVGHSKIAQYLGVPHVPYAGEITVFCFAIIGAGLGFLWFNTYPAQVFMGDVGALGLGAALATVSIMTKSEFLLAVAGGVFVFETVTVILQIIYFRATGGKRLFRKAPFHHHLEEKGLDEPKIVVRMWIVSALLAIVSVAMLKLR

Compound	IC50 [1]	IC50 [2]	IC50 [3]	IC50 [4]	IC50 [5]	IC50 [6]	IC50 [8]	IC50 [9]	IC50 [10]	IC50 [11]	IC50 [12]	IC50 [13]	IC50 [14]	IC50 [15]	IC50 [16]	other results
CO[C@H]1[C@@H](OC)[C@H](n2ccc(=O)[nH]c2=O)O[C@@H]1[C@@H](O[C@H]1OC(C(=O)N[C@H]2CCCCNC2=O)=C[C@H](O)[C@@H]1O)C(N)=O [O-Methyl capuramycin]	4500 nM	~60 nM	> 50000 nM	> 50000 nM	> 50000 nM	> 50000 nM	> 50000 nM	> 50000 nM	> 50000 nM	> 50000 nM	> 50000 nM	> 50000 nM	> 50000 nM	> 50000 nM	60 nM	IC50 ([1]; listed as OM-CAP): 3500 nM; MraY/MurX inhibitory activity (in words) [7]: does not exhibit MraY/MurX inhibitory activity
Tunicamycin	1500 nM	150 nM	2900 nM	1500 nM	450 nM	1500 nM	780 nM	1700 nM	920 nM	1250 nM	1500 nM	2500 nM	7500 nM	920 nM	150 nM	DPAGT1 protein expression [17]: decreased; wound-healing rate [18]: 35%; DPAGT1 gene expression [19]: decreased; IC50 [20]: 2500 nM; LD100 [21]: 3.5 mg/kg; LDs50 [21]: 2.0 mg/kg; IC50 [7]: 3380 nM; IC50 [22]: 780 to 7500 nM and 450 to 7500 nM; IC50 [23]: 13200 nM
